In US20080221114A1, “2-(Cyclic Aminocarbonyl) Indoline Derivative and Medicinal Composition Containing the Same” (priority 2005, published 2008):

Columns and labels:
male Std-Wistar rats = assay: Forced swimming test (antidepressant effect); type: in vivo, rat; settings: 1 mg/kg orally 3 times (24 hours, 4 hours and 1 hour before the test); 6-minute period; vs vehicle, p<0.01
Protocol: An animal (mouse or rat) which is forced to swim in an inescapable water tank show an immobile posture, thought to reflect a state of behavioral despair, after an initial period of vigorous swimming activity. The forced swimming test, a behavioral despair model, is frequently used for evaluating antidepressant effect since a lot of antidepressants reduce the duration of immobility induced by forced swimming. The antidepressant effect of the compound of the present invention was evaluated in the forced swimming test based on the method of Porsolt R. D. et al. [see; Eur. J. Pharmacol., 47, 379-391 (1978)] with a minor modification.
In the test, a group of five male Std-Wistar rats, weighing 110-150 g, which were selected after training session was used. […]
The test compound (the compound of Example 40) was orally administered 3 times, i.e., 24 hours, 4 hours and 1 hour before the test. One hour after the final oral administration, the rats were put into the water and the immobile time observed during a 6-minute period was recorded. The effect shortening the immobile time in the test compound-treated group was evaluated using a Dunnett's multiple comparison test as compared with the vehicle control group.

mice (male ddY) = assay: Social interaction test (antianxiety effect); type: in vivo, mouse; settings: oral, 1 hour before test; statistically significant increase in social interaction time vs vehicle (Dunnett's test, 5%)
Excerpt: The test is a behavioral pharmacological test wherein social interaction time which would arise between 2 animals (mice, rats or other) in a test apparatus is considered to be as an anxious indicator [see; File, S. E., J. Neurosci. Methods, 2, 219-238 (1980)]. It is known that a bright and unfamiliar test apparatus which is an aversive condition for mice or rats may suppress a social interaction of the animals and such suppressed social interaction may be restored by an antianxiety drug such as benzodiazepines.
A glass beaker which was inverted onto a frosted glass plate was brightly illuminated with a light source (ca. 1200 lux in the apparatus), and it was used as a test apparatus. Two mice (male ddY, 22-32 g) that were housed in separate home cages were orally treated with a test compound and returned to their home cages. One hour after the oral administration, the two mice were then placed together in the test apparatus, and the amount of time spent in social interaction by the two mice during a 15-minute period was recorded. The social interaction was defined as grooming and sniffing of the partner, genital investigation of the partner, climbing over or crawling under the partner. Four to five pairs (8 to 10 mice) were used per a group.
An antianxiety effect of the test compounds was presented as a minimum effective dose which indicated statistically significant increase in social interaction time as compared with a vehicle control group (Dunnett's test, Significance level: 5%).

[1] = biological target: T1, mitochondrial benzodiazepine receptor (MBR) (Rattus norvegicus, UniProt P16257); assay: Binding assay of mitochondrial benzodiazepine receptor (MBR), [3H]4'-chlorodiazepam (Ro5-4864), rat kidney membrane-preparation; settings: rat kidney membranes, [3H]4'-chlorodiazepam 0.5 nM, 0° C. for 150 minutes
T1 construct: from tissue; host or cells: kidney of male Wistar rats (crude membrane preparation)
How it was run: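 Kidney membranes from male Wistar rats were incubated with 0.5 nM [3H]Ro5-4864 in pH 7.4 sodium/potassium phosphate buffer with 100 mM NaCl for 150 min at 0 °C, then filtered. Nonspecific binding was defined with 50 μM diazepam. IC50 was obtained by nonlinear least-squares fitting of specific-binding inhibition.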

melting point: 219 to 221 °C | IC50 [1]: 6.05 nM
Compound: C[C@H]1CCCN(C(=O)[C@@H]2Cc3ccccc3N2c2ccc(=O)n(C)n2)C1 [Example 40, (S)-1-(1-methyl-6-oxo-1,6-dihydropyridazin-3-yl)-2-[[(S)-3-methylpiperidin-1-yl]carbonyl]indoline]
shortening of the immobile time (male Std-Wistar rats): 28% | Minimum effective dose (mice (male ddY)): 1 mg/kg
